Tested on: not listed separately
Assay: (2S,3S)-2,3-butanediol oxidation activity of enzyme preparations from Zoogloea ramigera
Format: biochemical
Conditions: fraction after each purification step
Experimental: (§1) React a reaction solution containing 50 mM glycine-sodium hydroxide buffer (pH 11.0), 2.5 mM NAD^+, 50 mM (2S,3S)-2,3-butanediol and the enzyme at 30° C. Then, measure the increase of absorbance at 340 nm relative to the increase of NADH. 1 U is defined as the amount of enzyme that catalyzes a 1-μmol increase of NADH in 1 minute.
Zoogloea ramigera strain DSM287 was cultured at 28° C. for 54 hours in 1.2 L of YPD medium that uses glycerol as a carbon source, and wet bacterial cells were prepared by centrifugation. Approximately 30 g of the obtained wet bacterial cells were suspended in a 50 mL solution of 50 mM potassium phosphate buffer (pH8.0) and 1 mM 2-mercaptoethanol. The cells were then disrupted using Multi-beads shocker (Yasui Kikai), and bacterial cell debris was removed by centrifugation to obtain cell-free extract. Protamine sulfate was added to this cell-free extract and nucleic acids were removed by centrifugation to yield the supernatant. Ammonium sulfate was added to this supernatant up to 30% saturation, and this was applied onto phenyl-sepharose column (2.6 cm×10 cm) equilibrated with standard buffer (10 mM Tris-HCl buffer (pH8.0) and 0.01% 2-mercaptoethanol) comprising 30% ammonium sulfate. After washing the column with the same buffer, gradient elution was performed with 30% to 0% saturated ammonium sulfate. […]

Row | Compound | Specific activity (U/mg)
1 | Hydroxyapatite | 60.9 U/mg

Target: acetoin reductase (Klebsiella pneumoniae, UniProt Q48436)
Assay: not given
Conditions: J. Ferment. Technol. 83, 32-37 (1997); cited from earlier work

Chain of acetoin reductase (Q48436 whole entry): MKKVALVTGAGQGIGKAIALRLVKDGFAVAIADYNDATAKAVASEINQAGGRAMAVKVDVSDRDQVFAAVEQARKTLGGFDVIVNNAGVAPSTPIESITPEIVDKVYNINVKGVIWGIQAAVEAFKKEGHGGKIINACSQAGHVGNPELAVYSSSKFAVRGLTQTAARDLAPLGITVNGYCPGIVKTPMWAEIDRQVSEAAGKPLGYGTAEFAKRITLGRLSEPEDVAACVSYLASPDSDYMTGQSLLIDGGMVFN

Row | Compound | action of the enzyme on the substrate
2 | C[C@H](O)[C@H](C)O [(2S,3S)-2,3-butanediol] | doesnot act
3 | CC(O)C(C)O (stereo not drawn) [meso-2,3-butanediol] | specifically act

Tested on: (2S,3S)-2,3-butanediol dehydrogenase
Assay: Reductive activity of the purified enzyme on various substrates, NADH as coenzyme
Format: biochemical, Zoogloea ramigera
Conditions: reduction; substrate 50 mM, standard reaction condition; activity on 2,3-butanedione taken as 100
Experimental: React a reaction solution containing 50 mM potassium phosphate buffer (pH 5.5), 0.2 mM NADH, 20 mM 2,3-butanedione and the enzyme at 30° C. Then, measure the decrease of absorbance at 340 nm relative to the decrease of NADH. 1 U is defined as the amount of enzyme that catalyzes a 1-μmol decrease of NADH in 1 minute. The protein can be quantified by a dye binding method using BioRad protein assay kit.
The reductive activity of the enzyme obtained in Example 1 was measured on various substrates (50 mM) under the standard reaction condition.

Row | Compound | Relative activity (%)
4 | CC(=O)C(C)=O [2,3-Butanedione] | 100%
5 | CC(=O)C(C)O (stereo not drawn) [Acetoin] | 58.9%

Target: L-2,3-butanediol dehydrogenase (Corynebacterium glutamicum, UniProt Q9ZNN8)
Assay: not given
Conditions: Biosci. Biotechnol. Biochem. 65, 1876-1878 (2001); cited from earlier work

Chain of L-2,3-butanediol dehydrogenase (Q9ZNN8 whole entry): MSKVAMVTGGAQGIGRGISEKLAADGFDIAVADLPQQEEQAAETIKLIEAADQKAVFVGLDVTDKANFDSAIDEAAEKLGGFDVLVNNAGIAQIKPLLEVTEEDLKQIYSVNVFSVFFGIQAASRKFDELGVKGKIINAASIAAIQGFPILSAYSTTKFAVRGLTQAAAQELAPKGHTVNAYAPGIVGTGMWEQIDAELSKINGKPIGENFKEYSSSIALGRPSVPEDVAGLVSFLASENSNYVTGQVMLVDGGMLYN

Row | Compound | activity of the enzyme towards the substrate
6 | CCC(C)O (stereo not drawn) [2-butanol] | lacks activity

Tested on: (2S,3S)-2,3-butanediol dehydrogenase
Assay: Activation of (2S,3S)-2,3-butanediol dehydrogenase activity by divalent ions
Format: biochemical, Zoogloea ramigera
Conditions: divalent ion 1 mM; activity in the absence of the ions taken as 100
Experimental: as §1
The activation effect by a divalent ion can be measured as described above by adding 1 mM of a metal ion into the above-mentioned reaction solution.

Row | Compound | Relative activity (%)
7 | [Ba+2] [Ba^2+] | 112%
8 | [Ca+2] [Ca^2+] | 113%
9 | [Co+2] [Co^2+] | 106%
10 | [Cu+2] [Cu^2+] | 107%
11 | [Mg+2] [Mg^2+] | 110%
12 | [Mn+2] [Mn^2+] | 104%
13 | [Ni+2] [Ni^2+] | 104%
14 | [Zn+2] [Zn^2+] | 109%

Tested on: (2S,3S)-2,3-butanediol dehydrogenase
Assay: Dehydrogenase (oxidative) activity of the purified enzyme on various substrates, NAD+ as coenzyme
Format: biochemical, Zoogloea ramigera
Conditions: oxidation; substrate 50 mM, standard reaction condition; activity on (2S,3S)-2,3-butanediol taken as 100
Experimental: as §1
The dehydrogenase activity of the enzyme obtained in Example 1 was measured against various substrates (50 mM) under the standard reaction condition.

Row | Compound | Relative activity (%)
15 | C[C@@H](O)[C@@H](C)O [(2R,3R)-2,3-butanediol] | 2.89%
16 | C[C@H](O)[C@H](C)O [(2S,3S)-2,3-butanediol] | 100%
17 | C[C@@H](O)CO [(R)-1,2-propanediol] | 0.90%
18 | OC[C@@H](O)CCl [(R)-3-chloro-1,2-propanediol] | 3.62%
19 | C[C@H](O)CO [(S)-1,2-propanediol] | 55.3%
20 | OC[C@H](O)CCl [(S)-3-chloro-1,2-propanediol] | 0%
21 | CC(=O)C(C)O (stereo not drawn) [Acetoin] | 0.26%
22 | CC(O)C(C)O (stereo not drawn) [meso-2,3-butanediol] | 0%
23 | (R)-2-butanol | 1.11%
24 | (S)-2-butanol | 43.3%
